Values of other authors as cited in patent US9034622B2, “Preparation for photodynamic control of microorganisms and use thereof” (priority 2004, dated 2015).

Tests used:
[1] = system: reperfusion-induced damage or the extent of the myocardial infarct; settings: intravenous glutathione administration; pigs pre-treated with glutathione synthesis inhibitor; ischemia/reperfusion
isolated perfused heart = settings: perfusate enriched with GSH

Which “reperfusion-induced damage or extent of the myocardial infarct” value [1] does the source give for `N[C@@H](CCC(=O)N[C@@H](CS)C(=O)NCC(=O)O)C(=O)O` [glutathione, Glutathione] here?
The value was “could be reduced”.

What about the “recovery of ventricle function after ischemia and reperfusion” value (isolated perfused heart) of the same compound?
The value was “better recovery of ventricle function”.
